Data reported in US7947262B2, “Use of fullerenes for the treatment of mast cell and basophil-mediated disease” (Virginia Commonwealth University, priority 2006, dated 2011).

Tests used:
IgE-DNP-sensitized mice = experiment: IgE-induced systemic anaphylaxis in vivo; settings: intravenously (50 ng/ml) overnight before DNP-BSA challenge; FIG. 6
Description: FIG. 6. […] Mice (3-5 per group; n=2 separate experiments) were sensitized with or without (Δ) DNP-IgE overnight. The mice were then given vehicle alone (▪) or fullerenes (▾=Poly C60; ●=N-ethyl C60) intravenously (50 ng/ml) overnight. The next morning the animals were challenged with DNP-BSA (100 μg/ml) and the core body temperature measured for up to 30 minutes. Serum histamine levels were measured by ELISA. A, data represented with line graphs; B, data represented with bar graphs.
Systemic anaphylaxis is predominately driven by the activation of MC and PBB through IgE-FceRI crosslinking (45;61). […] Thus, we hypothesized that they could inhibit MC and PBB-induced anaphylaxis in vivo using IgE-sensitized mice. […] In addition, there was a significant reduction in serum histamine levels with the fullerene preincubation.
To test inhibition of mouse anaphylaxis, mice are injected intraperitoneally (IP) with 50 μg of DNP-specific IgE. After approximately 4 to 6 hours the mice (triplicate) are injected with or without different concentrations of fullerenes. The next day cells are injected IP with DNP-HSA (100 μg, Sigma-Aldrich). […] After 30 minutes, mice are sacrificed, and cardiac puncture is used to obtain plasma, from which histamine and other mediators are measured by ELISA. […]

skin MC [1] = experiment: Cellular localization by immunohistochemistry with anti-C60 fullerene Ab; assay type: cell-based, human; settings: 4 hours incubation; Polyhydroxy C60 10 ng/ml, N-ethyl-polyamino C60 0.1 μg/ml; FIG. 4
Description: Skin MC (a-d) or PBB (e, f) were incubated with Polyhydroxy C60 (10 ng/ml; a, b, c, f) or N-ethyl-polyamino C60 (0.1 μg/ml; d, f) for 4 hours, washed and cytocentrifuged onto slides. The cytocentrifuge preparations were incubated with anti-C60 fullerene Abs (c, d, e, f) or with an isotype-matched control (a, b) overnight. The cytospins were washed and incubated with a 1:50 dilution of peroxidase-conjugated, anti-mouse Abs and developed with AEC as described. Photographs a and b are the same field taken under phase-contrast (a) or light (b) at a magification of 400×. Pictures c-f were taken under light at a magification of 1000×.
To access the cellular localization if the fullerenes within human MC, these cells were incubated with the water soluble fullerenes and immunohistochemistry was assessed using a fullerene-specific antibody Ab (59;60).

skin MC [2] = experiment: Cellular ROS levels after antigen challenge (DCF dye, FACS); assay type: cell-based, human; settings: preincubation, then NIP-BSA 100 ng/ml for 30 min; FIG. 5
Description: (§1) Skin MC (grey) or PBB (white) were sensitized overnight with anti-NIP-IgE (1 μg/ml). Cells were activated for 30 min with NIP-BSA (100 ng/ml) with or without preincubation with the indicated concentrations of fullerenes or N-acetyl-L-cysteine (NAC; 10 μmol). Cellular ROS levels were detected by incubating the cells in the ROS indicating dye 5-(and-6)-carboxy-2′,7′-dichlorodihydrofluorescein diacetate (DCF) followed by FACS analysis. The results are representative of 3 separate MC or PBB cultures. The * or # indicates statistically significant changes in ROS levels for MC and PBB, respectively (p<0.05). A, polyhydroxy C60 fullerenes; B, N-ethyl-polyamine C60 fullerenes.
(§2) To investigate the mechanism by which these fullerenes inhibit allergic mediator release from skin MC and PBB, the effect these compounds have on ROS levels within the cell after antigen stimulation was tested.

PBB [3] = experiment: as above; assay type: cell-based, human; settings: preincubation, then NIP-BSA 100 ng/ml for 30 min; FIG. 5
Description: as §1, §2

PBB [4] = system: PBB
Description: (§3) A bar graph illustrating the effects of fullerenes on skin MC and PBB viability Cells were cultured with (poly; white bars, N-ethyl; striped bars) or without (black bars) fullerenes (10 mg/ml) for the indicated times. Cells were washed and viability assessed by trypan blue exclusion. Results are representative of 3 experiments from different donors.
(§4) The effects of water soluble fullerene derivatives (Poly; polyhydroxy C60 and N-ethyl; N-ethyl-polyamino C60) on cell growth and viability were tested. Cells were incubated for up to 72 hours and total cell numbers were assessed along with trypan blue exclusion.

skin MC [5] = system: skin MC
Description: as §3, §4

cellular localization of fullerenes (skin MC [1])	Substance	IgE-induced anaphylaxis (IgE-DNP-sensitized mice)	cellular ROS levels (skin MC [2])	cellular ROS levels (PBB [3])	total cell numbers (PBB [4])	total cell numbers (skin MC [5])
localize within the cytoplasm of MC	N-ethyl-polyamino C60	inhibit IgE-induced anaphylaxis	inhibit ROS production	inhibit ROS production	None of the fullerenes demonstrated a significant affect	None of the fullerenes demonstrated a significant affect
localize within the cytoplasm of MC	polyhydroxy C60	inhibit IgE-induced anaphylaxis	inhibit ROS production	inhibit ROS production	None of the fullerenes demonstrated a significant affect	None of the fullerenes demonstrated a significant affect
